Measurements from article PMC2864911, “Effect of Common Buffers and Heterocyclic Ligands on the Binding of Cu(II) at the Multimetal Binding Site in Human Serum Albumin” (Bioinorganic Chemistry and Applications, 2010).

Legend:
[1] = target: T1, Multimetal Binding Site (MBS) of Human Serum Albumin (HSA) (Homo sapiens, UniProt P02768); assay: Visible-range CD titration of Cu(II) binding at MBS of HSA; details: for log K app (apparent binding constant of the Cu(II)-MBS complex): 100 mM ligand solution, pH 7.4, 25°C, HSA 0.3–0.5 mM, binary species only assumed; for CI (competitivity index): Cu(II) and Z = 1 μM, HSA = 0.5 mM; for CI (competitivity index) / log K e (MBS + Cu(L) = Cu(MBS)(L)) / log K T (Cu(MBS) + Cu(L) = Cu(MBS)(L) + Cu^2+): pH 7.4; for log K 111 (Cu^2+ + L + MBS = Cu(MBS)(L)): pH 7.4, conditional constant, ternary complex model; for log K e (MBS + Cu(L) = Cu(MBS)(L)): log K 111 = log K 11 + log K e; for log K T (Cu(MBS) + Cu(L) = Cu(MBS)(L) + Cu^2+): log K T = log K 111 − log K 11 − log K app (NaCl)
T1 construct: purchased Sigma
T1 sequence (P02768 25-609): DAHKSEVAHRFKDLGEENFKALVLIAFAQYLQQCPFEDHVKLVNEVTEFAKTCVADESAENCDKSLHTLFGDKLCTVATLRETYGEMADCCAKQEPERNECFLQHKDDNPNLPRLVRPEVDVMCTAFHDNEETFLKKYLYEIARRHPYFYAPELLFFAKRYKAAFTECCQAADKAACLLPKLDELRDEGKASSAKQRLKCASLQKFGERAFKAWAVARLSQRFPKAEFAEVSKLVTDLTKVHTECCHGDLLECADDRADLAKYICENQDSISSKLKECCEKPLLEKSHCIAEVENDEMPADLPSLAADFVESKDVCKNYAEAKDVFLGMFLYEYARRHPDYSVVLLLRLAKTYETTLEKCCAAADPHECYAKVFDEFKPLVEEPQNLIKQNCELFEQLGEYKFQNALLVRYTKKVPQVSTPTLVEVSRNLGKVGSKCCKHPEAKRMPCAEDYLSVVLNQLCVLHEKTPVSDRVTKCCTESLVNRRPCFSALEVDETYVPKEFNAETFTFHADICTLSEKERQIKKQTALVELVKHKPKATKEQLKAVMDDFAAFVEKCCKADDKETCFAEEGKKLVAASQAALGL
Procedure: The CD spectra were recorded at 25°C on a Jasco J-715 spectropolarimeter (JASCO, Japan Spectroscopic Co., Hiroshima, Japan), over the range of 300–800 nm, using a 1 cm cuvette. The spectra are expressed in terms of Δε = ε l − ε r, where ε l and ε r are molar absorption coefficients for left and right circularly polarized light, respectively. In buffer experiments the solutions contained 100 mM Hepes, Tris, Sodium Phosphate, or NaCl, at pH 7.4.
HSA was dissolved at 0.3–0.5 mM in either a 100 mM Hepes, Tris, Sodium Phosphate buffers, pH 7.4, or in an unbuffered 100 mM NaCl solution. The pH of both types of samples was controlled to remain in the 7.38–7.42 corridor and adjusted with submicroliter amounts of concentrated HCl or NaOH when necessary. Concentrations of stock solutions of HSA were estimated spectrophotometrically at 279 nm and by Cu(II) titrations. The fractional abundance of NTS in HSA was measured by careful CD titrations using calibrated Cu(II) solutions.
We chose sodium phosphate, Tris and Hepes as the most common substances used for buffering protein solutions at pH 7.4. Their effect on Cu(II) binding to HSA was studied at a 0.1 M concentration stage versus unbuffered 0.1 M NaCl, used as a control solution. The choice of the latter was dictated by the presence of 0.1 M chloride in the blood serum. The pH of the NaCl samples was controlled by additions of small quantities of concentrated HCl or NaOH solutions, when necessary. […] The titrations were monitored by CD spectroscopy, analogously to our previous studies.
A typical titration is presented on Figure 1.
Apparent binding constants (K app) for Cu(II)-MBS complexes in the presence of buffers were obtained from titrations presented in Figure 2. Table 1 contains also further constants, calculated relative to the Cu(II)-MBS interaction in NaCl, taken as corresponding to a 100% binary complex formation.
First, the effects of competition of buffers for Cu(II) were accounted for Literature protonation and Cu(II) binding constants of Hepes, Tris, and phosphate ions were used in these calculations. […] The reactions defining these constants are provided in the footnotes of Table 1.
Briefly, K 111 describes the overall formation of a ternary species, K 11 is the literature binding constant of the Cu(II) complex of a buffer, K e corresponds to the ternary complex formation by addition of buffer-complexed Cu(II) to MBS, and K T is the equilibrium constant of the formation of the ternary complex in the reaction of two binary complexes, thus featuring the tendency of binary components to form a ternary species. All these constants, except for K 11, are conditional in respect to the pH value of 7.4.

[2] = literature values ref 30–32; cited from earlier work
HSA = details: cited from earlier work

| SMILES | log K app (apparent binding constant of the Cu(II)-MBS complex) [1] | CI (competitivity index) ([1]; [L] = 0.5 mM) | CI (competitivity index) ([1]; [L] = 100 mM) | log K 111 (Cu^2+ + L + MBS = Cu(MBS)(L)) [1] | log K e (MBS + Cu(L) = Cu(MBS)(L)) [1] | log K T (Cu(MBS) + Cu(L) = Cu(MBS)(L) + Cu^2+) [1] | log K 11 (Cu^2+ + L = Cu(L)) [2] | HSA binding constant (HSA) [M⁻¹] |
| --- | --- | --- | --- | --- | --- | --- | --- | --- |
| [Cl-].[Na+] [NaCl] | 4.60(3) | 7.62 | 7.62 |  |  |  |  |  |
| CC(=O)CC(c1ccccc1)c1c(O)c2ccccc2oc1=O (stereo not shown) [War, warfarin] |  |  |  |  |  |  |  | 330000 |

Now from value to compound, other results behind:

| log K app (apparent binding constant of the Cu(II)-MBS complex) [1] | CI (competitivity index) ([1]; [L] = 0.5 mM) | CI (competitivity index) ([1]; [L] = 100 mM) | log K 111 (Cu^2+ + L + MBS = Cu(MBS)(L)) [1] | log K e (MBS + Cu(L) = Cu(MBS)(L)) [1] | log K T (Cu(MBS) + Cu(L) = Cu(MBS)(L) + Cu^2+) [1] | SMILES | log K 11 (Cu^2+ + L = Cu(L)) [2] | HSA binding constant (HSA) [M⁻¹] |
| --- | --- | --- | --- | --- | --- | --- | --- | --- |
| 4.45(5) | 7.71 | 9.27 | 7.54(5) | 4.32 | −0.28 | O=S(=O)(O)CCN1CCN(CCO)CC1 [Hepes, N-2-hydroxyethylpiperazine-N′-2-ethanesulfonic acid] | 3.22 |  |
| 5.17(7) | 8.04 | 10.13 | 8.2(1) | 5.00 | +0.40 | O=P(O)(O)O [Phosphate, sodium phosphate] | 3.20 |  |
| 4.23(6) | 7.74 | 9.42 | 8.22(5) | 4.17 | −0.43 | NC(CO)(CO)CO [Tris, 2-amino-2(hydroxymethyl)-1,3-propanediol] | 4.05 |  |
